Test results: publication PMC12566703, “Design, Synthesis, In Vitro and In Silico Biological Evaluation of New Pyridine-2,5-Dicarboxylates Esters Bearing Natural Source Fragments as Anti-Trypanosomatid Agents” (Pharmaceutics, 2025)
Where two headings read alike, the source gives them in different places.

Experiments:
[1] = system: T. cruzi (A1) epimastigotes; experiment: In vitro trypanocidal activity, Alamar Blue assay, 48 h; assay type: cell-based, Trypanosoma cruzi; details: for IC50: 48 h; for Selectivity Index T. cruzi A1: CC50 (J774.2)/IC50
Experimental: (§1) Both strains were maintained in liver infusion tryptose (LIT) medium supplemented with 10% FBS and 0.1% penicillin-streptomycin. They were preserved by transferring 1 × 10^6 parasites/mL into a new culture medium every week. […] The metabolic activity was determined by the Alamar Blue assay. Briefly, after the incubation period, 20 µL of 2.5 mM resazurin solution was added to each well and incubated for 3 h. Three independent experiments were performed in triplicate. The half-maximum inhibitory concentration (IC50) was determined using probit analysis.

[2] = system: T. cruzi (NINOA) epimastigotes; experiment: as above; assay type: cell-based, Trypanosoma cruzi; details: for Selectivity Index T. cruzi NINOA: CC50 (J774.2)/IC50; for IC50: 48 h, read-out: T. cruzi IC50 (µM ± SD) NINOA
Experimental: as §1

[3] = Cytotoxicity assay, MTT method, 48 h; assay type: cell-based, murine; details: mouse, J774.2 macrophage cells, J774.2 cell line, read-out: Macrophage J774.2 CC50 (µM ± SD)
Experimental: A cytotoxicity assay was performed using the murine macrophage J774.2 cell line, which was recloned from the original ascites and solid tumor J774.1 (according to the manufacturer). The cells were cultured in RPMI medium supplemented with 10% SBF, 100 U […] penicillin, 100 µg/mL streptomycin, and glutamine (2 mM), and 5% CO2 atmosphere. The medium was changed every 2–3 days. Macrophages were used at 1 × 10^6 cells and were incubated with compounds at different concentrations (0.75–100 µM, respectively) at 37 °C for 48 h in a 5% CO2 atmosphere. DMSO was used as a negative control (0.2%). The metabolic activity of macrophages was determined by the MTT method. The percentage of cell viability was calculated, and the half-maximal cytotoxic concentration (CC50) was determined using probit analysis. Three independent assays were conducted in triplicate.

[4] = system: L. mexicana (MNYC/BZ/62/M379) (M379) promastigotes; experiment: In vitro leishmanicidal activity, MTT method, 48 h; assay type: cell-based, Leishmania mexicana; details: for Selectivity Index L. mexicana M379: CC50 (J774.2)/IC50; for IC50: Leishmania mexicana, 48 h, read-out: L. mexicana IC50 (µM ± SD) M379; for IC50 / Leishmanicidal activity class in words, M379 strain: promastigotes, M379 strain; for Leishmanicidal activity class in words, M379 strain: classes by IC50
Experimental: (§2) To determine the leishmanicidal activity of pyridine-2,5-dicarboxylates, the parasites, in their logarithmic growth phase (5 × 10^5 parasites/mL), were cultured in 96-well microliter plates with the corresponding pyridine-2,5-dicarboxylate compound at different concentrations (0.78–100 µM). Compounds were dissolved in DMSO in a final volume of 200 µL for 48 h at 26 °C. Parasites treated with DMSO (0.2%) were used as a negative control, while treatments with Glucantime and Amphotericin B, at the same concentrations, were used as positive controls. The metabolic activity of the cells was determined using the 3-(4,5-Dimethylthiazol-2-yl)-2,5-diphenyltetrazolium bromide (MTT) method. IC50 was determined using probit analysis. Three independent experiments were performed in triplicate, and the data were analyzed for statistical significance (p < 0.05) using Biostat 5.3.0 software.

[5] = system: L. mexicana (MHOM/MX/2017/UABJO17FCQEPS) (FCQEPS) promastigotes; experiment: In vitro leishmanicidal activity, MTT method, 48 h; assay type: cell-based, Leishmania mexicana; details: for Selectivity Index L. mexicana FCQEPS: CC50 (J774.2)/IC50; for IC50: Leishmania mexicana, 48 h, read-out: L. mexicana IC50 (µM ± SD) FCQEPS; for IC50 / Leishmanicidal activity class in words, FCQEPS strain: promastigotes, FCQEPS strain; for Leishmanicidal activity class in words, FCQEPS strain: classes by IC50
Experimental: as §2

[6] = Trypanosoma cruzi, epimastigotes, NINOA strain
[7] = Trypanosoma cruzi, epimastigotes, A1 strain, read-out: T. cruzi IC50 (µM ± SD) A1
[8] = epimastigotes, A1 strain, read-out: T. cruzi IC50 (µM ± SD) A1

Structure (SMILES) | IC50 ([1]; Trypanosoma cruzi, read-out: T. cruzi IC50 (µM ± SD) A1, epimastigotes, A1 strain, 48 h) | IC50 ([1]; read-out: T. cruzi IC50 (µM ± SD) A1, epimastigotes, A1 strain) | Selectivity Index T. cruzi A1 [1] | Selectivity Index T. cruzi NINOA [2] | IC50 [2, 6] | IC50 ([2]; epimastigotes, NINOA strain) | Trypanocidal activity class in words, NINOA strain ([2]; epimastigotes, NINOA strain, classes by IC50) | CC50 at 48 h [3] | Selectivity Index L. mexicana M379 [4] | IC50 [4] | Leishmanicidal activity class in words, M379 strain [4] | Selectivity Index L. mexicana FCQEPS [5] | IC50 [5] | Leishmanicidal activity class in words, FCQEPS strain [5] | IC50 [1, 7] | IC50 [1, 8] | Trypanocidal activity class in words, A1 strain ([1]; epimastigotes, A1 strain, classes by IC50)
O=C(Cn1ccnc1[N+](=O)[O-])NCc1ccccc1 [Bzn, Benznidazole, reference compound] | < 39 µM | 39.08 ± 0.07 µM | – | – | – | – | – | – | – | – | – | – | – | – | – | – | –
CCOC(=O)c1cc(-c2ccccc2)c(C(=O)OCC)nc1C [Compound 3a, Diethyl 6-methyl-3-phenylpyridine-2,5-dicarboxylate] | – | – | >7.5 | >3.6 | ≤ 56.7 µM | 54.5 ± 2.36 µM | moderate activity | > 200 µM | >1 | > 200 µM | did not have antiparasitic activity | >1 | > 200 µM | did not have leishmanicidal activity | – | – | –
CCOC(=O)c1cc(-c2ccc(C)cc2)c(C(=O)OCC)nc1C [Compound 3b] | – | – | >1.9 | >3.3 | 59.3 µM | 59.4 ± 1.45 µM | – | > 200 µM | >1 | > 200 µM | did not have antiparasitic activity | >1 | > 200 µM | – | 106 ± 1.16 µM | – | –
CCOC(=O)c1cc(-c2ccc(F)cc2)c(C(=O)OCC)nc1C [Compound 3c] | – | – | >2.2 | >1.9 | 100 ± 1.86 µM | – | – | > 200 µM | >1 | > 200 µM | inactive | >1.7 | 118 ± 2.08 µM | – | 91.7 ± 1.72 µM | – | –
CCOC(=O)c1nc(C)c(C(=O)OCc2ccccc2)cc1-c1ccccc1 [Compound 4a, 5-Benzyl 2-ethyl 6-methyl-3-phenylpyridine-2,5-dicarboxylate] | – | – | >7.0 | >4.7 | ≤ 56.7 µM | 42.4 ± 1.88 µM | – | > 200 µM | >1 | > 200 µM | did not have antiparasitic activity | >1 | > 200 µM | did not have leishmanicidal activity | ≤ 56.7 µM | 28.5 ± 1.5 µM | –
CCOC(=O)c1nc(C)c(C(=O)OCc2ccccc2)cc1-c1ccc(C)cc1 [Compound 4b, 5-Benzyl 2-ethyl 6-methyl-3-(p-tolyl)pyridine-2,5-dicarboxylate] | – | – | >3.8 | >7.5 | – | – | – | > 200 µM | >1 | > 200 µM | did not have antiparasitic activity | >1 | > 200 µM | – | ≤ 56.7 µM | 52.6 ± 1.87 µM | –
CCOC(=O)c1nc(C)c(C(=O)OCc2ccccc2)cc1-c1ccc(F)cc1 [Compound 4c] | – | – | >1 | >1 | > 200 µM | – | – | > 200 µM | >1 | > 200 µM | inactive | >1 | > 200 µM | – | > 200 µM | – | –
CCOC(=O)c1nc(C)c(C(=O)OCc2ccc(C)cc2)cc1-c1ccccc1 [Compound 5a, 2-Ethyl 5-(4-methylbenzyl) 6-methyl-3-phenylpyridine-2,5-dicarboxylate] | – | – | >9.3 | >3.5 | ≤ 56.7 µM | 56.6 ± 1.26 µM | – | > 200 µM | >1 | > 200 µM | did not have antiparasitic activity | >2.1 | 95 ± 1.36 µM | – | – | – | –
CCOC(=O)c1nc(C)c(C(=O)OCc2ccc(C)cc2)cc1-c1ccc(C)cc1 [Compound 5b] | – | – | >1 | >1 | > 200 µM | – | – | > 200 µM | >1 | > 200 µM | did not have antiparasitic activity | >1 | > 200 µM | – | > 200 µM | – | completely lose their trypanocidal activity
CCOC(=O)c1nc(C)c(C(=O)OCc2ccc(C)cc2)cc1-c1ccc(F)cc1 [Compound 5c] | – | – | >9.6 | >1 | > 200 µM | – | – | > 200 µM | >1 | > 200 µM | inactive | >1 | > 200 µM | abolished their leishmanicidal activity | 20.8 ± 0.1 µM | – | –
CCOC(=O)c1nc(C)c(C(=O)OCc2ccc3c(c2)OCO3)cc1-c1ccccc1 [Compound 6a, 5-(Benzo[d][1,3]dioxol-5-ylmethyl) 2-ethyl 6-methyl-3-phenylpyridine-2,5-dicarboxylate] | – | – | >1 | >7.3 | < 28 µM | 27.2 ± 0.84 µM | – | > 200 µM | >1 | > 200 µM | did not have antiparasitic activity | >1 | > 200 µM | did not have leishmanicidal activity | > 200 µM | – | –
CCOC(=O)c1nc(C)c(C(=O)OCc2ccc3c(c2)OCO3)cc1-c1ccc(C)cc1 [Compound 6b] | – | – | >4.0 | >3.7 | 54 ± 2.29 µM | – | – | > 200 µM | >1 | > 200 µM | did not have antiparasitic activity | >1 | > 200 µM | – | 50.2 ± 2.31 µM | – | –
CCOC(=O)c1nc(C)c(C(=O)OCc2ccc3c(c2)OCO3)cc1-c1ccc(F)cc1 [Compound 6c] | – | – | >7.9 | >1 | > 200 µM | – | – | > 200 µM | >1 | > 200 µM | inactive | >1 | > 200 µM | – | 25.4 ± 0.6 µM | – | –
CCOC(=O)c1nc(C)c(C(=O)OC/C=C/c2ccccc2)cc1-c1ccccc1 [Compound 7a] | – | – | >1 | >7.20 | 27.8 ± 1.66 µM | – | – | > 200 µM | >1 | > 200 µM | did not have antiparasitic activity | >1 | > 200 µM | did not have leishmanicidal activity | > 200 µM | – | –
CC1CS(=O)(=O)CCN1/N=C/c1ccc([N+](=O)[O-])o1 (stereo not shown) [Nfx, Nifurtimox, reference compound] | – | – | – | – | 7.09 ± 0.12 µM | – | – | – | – | – | – | – | – | – | 19.3 ± 0.08 µM | – | –
